# Data as given in patent publication US12655142B2 (Merck Patent GmbH, priority 2019, dated 2026).
# What was measured:
# [1] = molecular target: T1, GIST430/654 cell line expressing mutated constitutively active cKIT receptor tyrosine kinase (Δ560-576 deletion and V654A point mutation) (Homo sapiens, UniProt P10721, DEL560-576/V654A); assay: Cellular cKIT autophosphorylation (phospho-Y307-cKIT, Luminex bead assay) in GIST430/654 cells; assay type: cell-based; conditions: compounds 45 min, read-out: GIST 430/654 IC50
# T1 construct: endogenous in cells; host or cells: GIST430/654 cells
# Method in brief: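 Phospho-Y307 cKIT in lysates was measured on a Luminex bead assay, with total-cKIT capture overnight at 4 °C and phosphospecific plus PE secondary detection. Cells had 45 min exposure to a compound dilution series the day after plating: GIST430 (Δ560-576) or GIST430/654 (Δ560-576/V654A, grown with 100 nM imatinib). IC50 values are relative to 0.3% DMSO-treated cells.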
# c-Kit(V654A) = molecular target: T2, c-Kit(V654A) (Homo sapiens, UniProt P10721, V654A); assay: c-Kit(V654A) assay (33P-ATP filter binding kinase assay); assay type: biochemical; conditions: recombinant human c-Kit aa 544-end V654A, ATP 200 μM
# T2 construct: recombinant human c-Kit, amino acids 544-end containing the V654A mutation; GST (N)
# Method in brief: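 Radiometric filter-binding read-out: substrate 33P incorporation counted by scintillation after P30 filtermat washes in 75 mM phosphoric acid and methanol. Enzyme: N-GST recombinant human c-Kit aa 544-end carrying V654A.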
# T2 sequence (P10721 544-976 V654A): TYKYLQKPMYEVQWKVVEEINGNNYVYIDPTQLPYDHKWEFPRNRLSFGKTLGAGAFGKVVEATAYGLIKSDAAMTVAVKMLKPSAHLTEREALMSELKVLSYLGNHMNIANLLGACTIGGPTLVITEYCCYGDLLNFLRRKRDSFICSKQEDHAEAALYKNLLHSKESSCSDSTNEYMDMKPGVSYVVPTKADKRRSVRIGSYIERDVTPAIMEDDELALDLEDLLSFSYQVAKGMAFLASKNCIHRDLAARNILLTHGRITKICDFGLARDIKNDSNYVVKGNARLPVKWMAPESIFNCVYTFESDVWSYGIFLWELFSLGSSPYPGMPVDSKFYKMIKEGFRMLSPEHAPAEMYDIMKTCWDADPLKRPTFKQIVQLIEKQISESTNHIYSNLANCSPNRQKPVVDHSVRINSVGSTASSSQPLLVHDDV
# T1 sequence (P10721 with tags, fused parts or gaps DEL560-576/V654A): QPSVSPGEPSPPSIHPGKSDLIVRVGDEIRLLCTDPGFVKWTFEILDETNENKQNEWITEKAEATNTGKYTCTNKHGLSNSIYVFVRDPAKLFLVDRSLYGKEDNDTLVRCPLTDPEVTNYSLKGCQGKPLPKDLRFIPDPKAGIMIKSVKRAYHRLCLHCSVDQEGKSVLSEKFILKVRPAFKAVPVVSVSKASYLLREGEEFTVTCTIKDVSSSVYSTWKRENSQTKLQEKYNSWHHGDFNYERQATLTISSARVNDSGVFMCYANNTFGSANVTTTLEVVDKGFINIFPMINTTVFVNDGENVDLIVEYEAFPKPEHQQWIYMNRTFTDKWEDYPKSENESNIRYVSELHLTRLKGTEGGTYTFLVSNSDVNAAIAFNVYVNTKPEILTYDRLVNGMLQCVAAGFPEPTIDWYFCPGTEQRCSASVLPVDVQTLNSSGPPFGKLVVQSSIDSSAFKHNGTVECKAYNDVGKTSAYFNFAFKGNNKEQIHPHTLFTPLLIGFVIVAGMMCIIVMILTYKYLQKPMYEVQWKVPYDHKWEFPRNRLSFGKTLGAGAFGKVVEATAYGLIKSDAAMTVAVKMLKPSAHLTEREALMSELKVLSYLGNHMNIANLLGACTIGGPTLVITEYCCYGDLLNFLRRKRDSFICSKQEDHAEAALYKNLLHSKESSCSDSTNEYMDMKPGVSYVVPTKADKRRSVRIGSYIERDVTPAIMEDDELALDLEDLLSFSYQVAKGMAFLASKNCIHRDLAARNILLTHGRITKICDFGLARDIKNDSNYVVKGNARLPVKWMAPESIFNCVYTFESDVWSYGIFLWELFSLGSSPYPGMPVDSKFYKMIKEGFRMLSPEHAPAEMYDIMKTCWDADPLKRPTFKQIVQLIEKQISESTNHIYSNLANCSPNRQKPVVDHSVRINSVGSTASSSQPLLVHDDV
SMILES,IC50 [1],IC50 (c-Kit(V654A))
"Fc1cc(N2CCCC2)ncc1CNc1cc(-c2cnc3ccccn23)ncn1 [A152, (4-fluoro-6-pyrrolidin-1-yl-pyridin-3-ylmethyl)-(6-imidazo[1,2-a]pyridin-3-yl-pyrimidin-4-yl)-amine]",370 nM,3.8 nM
"c1ccn2c(-c3cc(NCc4ccc(-c5ncc[nH]5)cc4)ncn3)cnc2c1 [A157, (6-imidazo[1,2-a]pyridin-3-yl-pyrimidin-4-yl)-[4-(1H-imidazol-2-yl)-benzyl]-amine]",1500 nM,33 nM
"Cn1cc(-c2ccc(CNc3cc(-c4cnc5cc(O)ccn45)ncn3)cc2)cn1 [A160, 3-[6-({[4-(1-methyl-1H-pyrazol-4-yl)phenyl]methyl}amino)pyrimidin-4-yl]imidazo[1,2-a]pyridin-7-ol]",1000 nM,38 nM
"COc1ccn2c(-c3cc(NCc4ccc(-c5cnn(C)c5CO)cc4)ncn3)cnc2c1 [A161, [4-(4-{[6-(7-methoxy-imidazo[1,2-a]pyridin-3-yl)-pyrimidin-4-ylamino]-methyl}-phenyl)-2-methyl-2H-pyrazol-3-yl]-methanol]",180 nM,22 nM
"Cn1cc(-c2ccc(CNc3cc(-c4cnc5cc(N)ccn45)ncn3)cc2)cn1 [A162, 6-{7-aminoimidazo[1,2-a]pyridin-3-yl}-N-{[4-(1-methyl-1H-pyrazol-4-yl)phenyl]methyl}pyrimidin-4-amine]",180 nM,7.4 nM
"Cn1cc(-c2ccc(CNc3cc(-c4cnc5cc(NC(C)(C)CO)ccn45)ncn3)cc2)cn1 [A163, 2-methyl-2-(3-{6-[4-(1-methyl-1H-pyrazol-4-yl)-benzylamino]-pyrimidin-4-yl}-imidazo[1,2-a]pyridin-7-ylamino)-propan-1-ol]",1900 nM,85 nM
"Cn1cc(-c2ccc(CNc3cc(-c4cnc5cc(OC6CCNCC6)ccn45)ncn3)cc2)cn1 [A164, N-{[4-(1-methyl-1H-pyrazol-4-yl)phenyl]methyl}-6-[7-(piperidin-4-yloxy)imidazo[1,2-a]pyridin-3-yl]pyrimidin-4-amine]",260 nM,9 nM
"Cn1cc(-c2ccc(CNc3cc(-c4cnc5cc(CCN6CCC(F)(F)C6)ccn45)ncn3)cc2)cn1 [A169, (6-{7-[2-(3,3-difluoro-pyrrolidin-1-yl)-ethyl]-imidazo[1,2-a]pyridin-3-yl}-pyrimidin-4-yl)-[4-(1-methyl-1H-pyrazol-4-yl)-benzyl]-amine]",300 nM,32 nM
"CN1CCN(c2ccn3c(-c4cc(NCc5ccc(-c6cnn(C)c6)cc5)ncn4)cnc3c2)CC1 [A181, {6-[7-(4-methyl-piperazin-1-yl)-imidazo[1,2-a]pyridin-3-yl]-pyrimidin-4-yl}-[4-(1-methyl-1H-pyrazol-4-yl)-benzyl]-amine]",110 nM,15 nM
"Cn1cc(-c2ccc(CNc3cc(-c4cnc5cc(OC6CCN(C7COC7)CC6)ccn45)ncn3)cc2)cn1 [A182, N-{[4-(1-methyl-1H-pyrazol-4-yl)phenyl]methyl}-6-(7-{[1-(oxetan-3-yl)piperidin-4-yl]oxy}imidazo[1,2-a]pyridin-3-yl)pyrimidin-4-amine]",92 nM,11 nM
"Cn1cc(-c2ccc(CNc3cc(-c4cnc5cc(OCC6CCN(C7CC7)CC6)ccn45)ncn3)cc2)cn1 [A187, {6-[7-(1-cyclopropyl-piperidin-4-ylmethoxy)-imidazo[1,2-a]pyridin-3-yl]-pyrimidin-4-yl}-[4-(1-methyl-1H-pyrazol-4-yl)-benzyl]-amine]",380 nM,7.5 nM
"Cn1cc(-c2ccc(CNc3cc(-c4cnc5cc(OCC6CCN(CC#N)CC6)ccn45)ncn3)cc2)cn1 [A188, [4-(3-{6-[4-(1methyl-1H-pyrazol-4-yl)-benzylamino]-pyrimidin-4-yl}-imidazo[1,2-a]pyridin-7-yloxymethyl)-piperidin-1-yl]-acetonitrile]",190 nM,9.5 nM
COCCN1CCC(COc2ccn3c(-c4cc(NCc5ccc(-c6cnn(C)c6)cc5)ncn4)cnc3c2)CC1 [A190],170 nM,3.8 nM
"Cn1cc(-c2ccc(CNc3cc(-c4cnc5cc(OCCN6CCC[C@@H]7OCC[C@@H]76)ccn45)ncn3)cc2)cn1 [A210, (6-{7-[(3aS,7aS)-2-(hexahydro-furo[3,2-b]pyridin-4-yl)-ethoxy]-imidazo[1,2-a]pyridin-3-yl}-pyrimidin-4-yl)-[4-(1-methyl-1H-pyrazol-4-yl)-benzyl]-amine]",100 nM,6.5 nM
"Cn1cc(-c2ccc(CNc3cc(-c4cnc5cc(OCCCCN6CCC6)ccn45)ncn3)cc2)cn1 [A225, {6-[7-(4-azetidin-1-yl-butoxy)-imidazo[1,2-a]pyridin-3-yl]-pyrimidin-4-yl}-[4-(1-methyl-1H-pyrazol-4-yl)-benzyl]-am amine]",57 nM,15 nM
"COc1ccn2c(-c3cc(NCc4ccc(-c5cn(CC(C)(C)O)nc5N)cc4)ncn3)cnc2c1 [A229, 1-[3-amino-4-(4-{[6-(7-methoxy-imidazo[1,2-a]pyridin-3-yl)-pyrimidin-4-ylamino]-methyl}-phenyl)-pyrazol-1-yl]-2-methyl-propan-2-ol]",660 nM,87 nM
"Cn1ncc(-c2ccc(CNc3cc(-c4cnc5cc(N6CCCC6)ccn45)ncn3)cc2)n1 [A232, [4-(2-methyl-2H-[1,2,3]triazol-4-yl)-benzyl]-[6-(7-pyrrolidin-1-yl-imidazo[1,2-a]pyridin-3-yl)-pyrimidin-4-yl]-amine]",170 nM,23 nM
"Cn1ncc(-c2ccc(CNc3cc(-c4cnc5cc(OCCCN6CC7(COC7)C6)ccn45)ncn3)cc2)n1 [A239, [4-(2-methyl-2H-[1,2,3]triazol-4-yl)-benzyl]-(6-{7-[3-(2-oxa-6-aza-spiro[3.3]hept-6-yl)-propoxy]-imidazo[1,2-a]pyridin-3-yl}-pyrimidin-4-yl)-amine]",94 nM,3.2 nM
"Cn1cc(-c2ccc(CNc3cc(-c4cnc5cc(F)ccn45)ncn3)cc2)cn1 [H1, 6-{7-fluoroimidazo[1,2-a]pyridin-3-yl}-N-{[4-(1-methyl-1H-pyrazol-4-yl)phenyl]methyl}pyrimidin-4-amine]",240 nM,12 nM

# More lines, in order of falling IC50 [1], values ahead:
IC50 [1],IC50 (c-Kit(V654A)),SMILES
87 nM,4.3 nM,"CC(COc1ccn2c(-c3cc(NCc4ccc(-c5cnn(C)c5)cc4)ncn3)cnc2c1)CN1CCCC1 (centres unmarked) [A235, [4-(1-methyl-1H-pyrazol-4-yl)-benzyl]-{6-[7-(2-methyl-3-pyrrolidin-1-yl-propoxy)-imidazo[1,2-a]pyridin-3-yl]-pyrimidin-4-yl}-amine]"
78 nM,9.5 nM,"Cn1cc(-c2ccc(CNc3cc(-c4cnc5cc(OCCN6C[C@@H](F)[C@@H](F)C6)ccn45)ncn3)cc2)cn1 [A209, (6-{7-[2-((3S,4R)-3,4-difluoro-pyrrolidin-1-yl)-ethoxy]-imidazo[1,2-a]pyridin-3-yl}-pyrimidin-4-yl)-[4-(1-methyl-1H-pyrazol-4-yl)-benzyl]-amine]"
77 nM,7.8 nM,"Cn1cc(-c2ccc(CNc3cc(-c4cnc5cc(N6CCOCC6)ccn45)ncn3)cc2)cn1 [A180, [4-(1-methyl-1H-pyrazol-4-yl)-benzyl]-[6-(7-morpholin-4-yl-imidazo[1,2-a]pyridin-3-yl)-pyrimidin-4-yl]-amine]"
62 nM,6.4 nM,"Cn1cc(-c2ccc(CNc3cc(-c4cnc5cc(OCCCN6CC7(COC7)C6)ccn45)ncn3)cc2)cn1 [A238, [4-(1-methyl-1H-pyrazol-4-yl)-benzyl]-(6-{7-[3-(2-oxa-6-aza-spiro[3.3]hept-6-yl)-propoxy]-imidazo[1,2-a]pyridin-3-yl}-pyrimidin-4-yl)-amine]"
48 nM,3.3 nM,"CC(COc1ccn2c(-c3cc(NCc4ccc(-c5cnn(C)n5)cc4)ncn3)cnc2c1)CN1CCCC1 (centres unmarked) [A227, {6-[7-(2-methyl-3-pyrrolidin-1-yl-propoxy)-imidazo[1,2-a]pyridin-3-yl]-pyrimidin-4-yl}-[4-(2-methyl-2H-[1,2,3]triazol-4-yl)-benzyl]-amine]"
44 nM,11 nM,"Cn1cc(-c2ccc(CNc3cc(-c4cnc5cc(OCCC[N+]6([O-])CCCC6)ccn45)ncn3)cc2)cn1 [A228, 1-[3-({3-[6-({[4-(1-methyl-1H-pyrazol-4-yl)phenyl]methyl}amino)pyrimidin-4-yl]imidazo[1,2-a]pyridin-7-yl}oxy)propyl]pyrrolidin-1-ium-1-olate]"
39 nM,2.2 nM,"COCCN1CCC(COc2ccn3c(-c4cc(NCc5ccc(-c6cnn(C)n6)cc5)ncn4)cnc3c2)CC1 [A191, (6-{7-[1-(2-methoxy-ethyl)-piperidin-4-ylmethoxy]-imidazo[1,2-a]pyridin-3-yl}-pyrimidin-4-yl)-[4-(2-methyl-2H-[1,2,3]triazol-4-yl)-benzyl]-amine]"
35 nM,4.3 nM,"Cn1cc(-c2ccc(CNc3cc(-c4cnc5cc(OCCCN6CCCCC6)ccn45)ncn3)cc2)cn1 [A237, N-{[4-(1-methyl-1H-pyrazol-4-yl)phenyl]methyl}-6-{7-[3-(piperidin-1-yl)propoxy]imidazo[1,2-a]pyridin-3-yl}pyrimidin-4-amine]"
26 nM,19 nM,"Cn1ncc(-c2ccc(CNc3cc(-c4cnc5cc(OCC6CCN(CC(F)F)CC6)ccn45)ncn3)cc2)n1 [A193, (6-{7-[1-(2,2-difluoro-ethyl)-piperidin-4-ylmethoxy]-imidazo[1,2-a]pyridin-3-yl}-pyrimidin-4-yl)-[4-(2-methyl-2H-[1,2,3]triazol-4-yl)-benzyl]-amine]"
